In patent US8097615B2, “Neurofibrillary labels” (Wista Laboratories Ltd., priority 2001, dated 2012):

Assays:
[1] = PET after injection; cases with clinical and neuroradiological diagnosis of Alzheimer's disease; cited from earlier work
[2] = biological target: T1, synthetic beta-amyloid fibrils (Homo sapiens, UniProt P05067); settings: in vitro; cited from earlier work
T1 construct: host or cells: synthetic peptide

PHFs = assay: Morphological studies of PHFs in the presence of phenothiazines (electron microscopy)
tangle fragments = assay: Competitive binding assay: displacement of primulin fluorescence from tangle fragments (ifI); parameters: species or system human; settings: fluorescence end point
Description: IfI material was homogenised in a 0.2 ml glass homogeniser in PBS. To the suspension, test compounds were added to final concentrations ranging from 0.1% to 0.00001%. […] The suspensions were transferred to a glass slide, and examined by fluorescence microscopy across a range of fluorescence filter blocks, covering excitation and emission wavelengths between 380 nm and 570 nm. The end point sought in these observations was displacement of typical primulin fluorescence from tangle fragments.

tau-tau binding [3] = assay: Solid-phase tau-tau binding assay, tau Preparation 1 (WO96/30766); format: biochemical, human
Excerpt: This point was further examined by studying the potency of typical aggregated tau ligands as tau-aggregation inhibitors. It has been shown previously that tau aggregation inhibitors (e.g. diaminophenothiazines) can be identified on the basis of inhibition of tau-tau binding in a solid-phase assay (WO 96/30766). […] Thus, although these compounds are potent ligands for tau within the PHF-core, they are at most weak inhibitors at the site required for inhibition of tau-tau binding.
Large-scale purification (1 liter bacterial culture) of tau fragments was carried out as described by Goedert and Jakes (1990, EMBO J., 9, 4225-4230), with minor modifications. Cells were disrupted by rapid freezing of the cell pellet in liquid nitrogen. The pellets were then suspended in buffer containing 50 mM PIPES, 1 mM dithiothreitol (DTT) (pH 6.8). The thermostable proteins in the supernatant were dialysed against PIPES/DTT, then applied to a column containing phosphocellulose equilibrated in the same buffer. […] Fractions were analysed by SDS-PAGE and both Coomassie staining and immunoblotting. […] Protein concentrations were measured by the Lowry method (Harrington C R (1990), “Lowry protein assay containing sodium dodecyl sulphate in microtitre plates for protein determinations on fractions from brain tissue”, Analytical Biochemistry 186: 285-287).

tau-tau binding [4] = biological target: T2, tau-tau binding (Homo sapiens, UniProt P10636); assay: Solid-phase tau-tau binding assay (dGA solid phase, dGAE liquid phase), tau Preparation 2; format: biochemical; settings: Preparation 2
T2 construct: a truncated tau protein corresponding to the core fragment and terminating at Ala390-dGA; dGAE which terminates at Glu-391; made in house; host or cells: E. coli BL21 (DE3), pRK172; DE52 flow-through, P11 phosphocellulose, PEG concentration, no heat step (Preparation 2)
T2 sequence (P10636 614-708 limits assumed): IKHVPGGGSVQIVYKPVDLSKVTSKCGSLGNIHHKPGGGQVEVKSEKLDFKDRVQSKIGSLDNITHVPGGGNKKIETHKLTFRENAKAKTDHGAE
Description: Preparation 2 differs from Preparation 1 above in the following respects: (1) The concentration of cells at the sonication stage is increased by 5-fold. (2) A batchwise adsorption of non-tau proteins to DE52 is included. (3) The proteins are not subjected to heat treatment. (4) The final step involves concentration using polyethylene glycol.
Escherichia coli is grown in 2×TY medium (Oxoid) supplemented with ampicillin (50 micrograms per ml) to late-logarithmic phase. Cells from 5 liters of culture are harvested by centrifugation and the cell pellets frozen rapidly over liquid nitrogen. The pellets are taken up with 50 mM PIPES (pH 6.8) containing 1 mM EDTA, 1 mM dithiothreitol and 1 mM phenylmethylsulphonylfluoride (PMSF) and bacteria lysed by sonication (2×3 min) at 4 C. The mixture is centrifuged at 10,000 rpm for 20 min. The supernatant is rotated with 1 gram of Whatman DE52 for 3 hr at 4 C. The mixture is separated on a column and the flow-through material that fails to bind to DE52 is incubated for 3 hr at 4 C, with rotation, with 0.4 g of Whatman P11 (freshly regenerated according to manufacturer's recommendations). The column is washed with column buffer (50 mM PIPES, pH 6.8 containing 1 mM EGTA, 5 mM EDTA, 0.2 mM MgCl2, 5 mM β-mercaptoethanol and 1 mM PMSF). Tau protein is eluted stepwise with a 0.1 to 1 M gradient of KCl in column buffer. Fractions containing tau (determined by immunoassay) are pooled and dialysed against 80 mM PIPES (pH6.8) containing 1 mM EGTA, 1 mM MgCl2 and 5 mM β-mercatoethanol, using dialysis tubing with a molecular weight cut-off of 1,000. The dialysate is concentrated by applying polyethylene glycol 8000 to the outside of the sac for 2-3 hr. The final concentration of tau ranged from 3 to 10 mg per ml.
When the proteins dGA and dGAE were prepared as indicated above (“Preparation 2”), the properties of the tau-tau binding assay were altered relative to the properties obtained using the preparative method described in WO96/30766 (“Preparation 1”).
The assay is performed using 96 well PVC plates (Falcon Cat. No. 353912 are used), and the following steps:
1. 50 μl dGA (˜10 μg/ml) in carbonate buffer, incubate 1 h at 37° C.
(Carbonate buffer: 50 mM carbonate bicarbonate, pH 9.6 (Na2CO3 1.59 g/l, NaHCO3 2.93 g/l))
2. Wash plate in 0.05% Tween-20.
3. 200 μl PBS+2% Marvel, incubate 1 h at 37° C.
4. Rinse plate 2× in deionised water, then wash in 0.05% Tween-20.
5. 50 μl dGAE (˜10 μg/ml) plus drug in PBS+1% fish skin gelatin+0.05% Tween-20, incubate 1 h at 37° C.
6. Wash plate in 0.05% Tween-20.
7. 50 μl antibody 423 (1:10 dilution in PBS+2% Marvel), incubate 1 h at 37° C.
8. Rinse plate 2× in deionised water, then wash in 0.05% Tween-20.
9. 50 μl HRP-anti-mouse (1:1000 dilution in PBS+0.05% Tween-20), incubate 1 h at 37° C.
10. Wash plate in 0.05% Tween-20, then rinse 1× with deionised water.
11. 50 μl substrate solution, read immediately initial rate over 2 min in plate reader at OD650.
(Substrate solution: 50 mM sodium acetate, pH 5.0+TMB (1 ml/100 ml of a 10 mg/ml solution in DMSO)+H2O2 (10 μl/100 ml)).

tau-tau binding [5] = biological target: T2, tau-tau binding; assay: Relief of DMMB inhibition of tau-tau binding by ligands (Preparation 2); format: biochemical
Excerpt: 2. using tau proteins prepared in this manner for testing putative ligands in the tau-tau binding assay provided in WO96/30766 to identify substances which have minimal or entirely absent activity as tau-aggregation inhibitors or enhance tau-tau binding at high concentrations; 3. testing putative ligands in the presence of an exemplary potent tau-aggregation inhibitor, such as DMMB, at an inhibitory concentration; 4. putative ligands can be identified by the property that they lack capacity to block tau-tau binding through the repeat domain, but block the inhibitory activity of a potent tau-aggregation inhibitor.
(ii) contacting (a) a tau protein or a derivative thereof containing the tau core fragment bound to a solid phase so as to expose a high affinity tau capture site (e.g. a truncated tau protein corresponding to the core fragment and terminating at Ala390-dGA), with (b) a liquid phase tau protein or derivative thereof capable of binding to the solid phase tau protein or derivative (e.g. dGAE which terminates at Glu-391), and (c) said selected first agent and (d) a second agent known to be tau-tau binding inhibitor, (iii) selecting a first agent which fully or partially relieves the inhibition of binding of the liquid phase tau protein or derivative of (b) to the solid phase tau protein or derivative of (a) by the inhibitor (d).
Similar results are shown for 15 μM DMMB in the presence of increasing concentrations of Primulin (c) and Thiazin Red (d).
For each graph, Tau-Tau binding is shown in the presence of constant concentrations of DMMB co-incubated with Primulin at 0×, 1×, 5×, 10×, 100× the DMMB concentrations shown.
This implies that the Tau-aggregation enhancement effect of these ligands is proportional to the fraction of ligand-binding sites occupied, presumably within the Tau aggregates introduced into the aqueous-phase of the assay. The mean Bmax for both ligands is ˜1.6. That is, the maximum ligand effect is to produce 1.6-fold the Tau-Tau binding signal seen in the absence of any drug. The mean Kd for this effect is ˜15×. That is, for any given concentration of DMMB>4 μM, 50% of maximal enhancement of Tau-Tau binding can be seen when the ligand molar excess is 15-fold relative to the concentration of DMMB.

T1 sequence (P05067 672-711 limits assumed): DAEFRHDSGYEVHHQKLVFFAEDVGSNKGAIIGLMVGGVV

CC(=C(C#N)C#N)c1ccc2cc(N(C)CC[18F])ccc2c1 [FDDNP, 2-(1-{6-[(2-[^18F]fluoroethyl)(methyl)amino]-2-naphthyl}ethylidene)malononitrile]
relative retention time (RRT) [1]: increased relative retention time | binding to synthetic beta-amyloid fibrils [2]: bind with high affinity

CN(C)c1ccc2nc3ccc(=[N+](C)C)cc-3sc2c1 [methylene blue]
disruption of PHF structure (PHFs): disruption of PHF structure in the presence of sufficiently high concentrations

Cc1ccc2sc(-c3ccc(N=Nc4cc(S(=O)(=O)[O-])c5ccccc5c4O)cc3)nc2c1S(=O)(=O)[O-].[Na+].[Na+] [thiazin red]
competition with / displacement of other ligands at tangles (tangle fragments): compete with primulin at equivalent concentrations | inhibition of tau-tau binding (tau-tau binding [3]): weak inhibitors of tau-tau binding | inhibition of tau-tau binding (tau-tau binding [4]): no inhibitory activity | BMax of tau-tau binding (tau-tau binding [5]; 5 μM DMMB, Binding=(BMax×[ligand])/(Kd+[ligand])): 1.64 | reversal of inhibitory effect of DMMB on tau-tau binding (tau-tau binding [5]; co-incubation with increasing molar excess of ligand): completely reversed
